The record followed here is US20240390357A1, “PYRIDINES AND THEIR USE IN TREATMENT OF GBA-RELATED DISEASES” (ZEVRA DENMARK A/S, priority 2021, published 2024).

The target of the assay is T1, GBA (glucosylceramidase, GCase), L444P GBA mutation (Homo sapiens, UniProt P04062, L483P).
T1 construct: Human fibroblast cell line GM10915 harboring the L444P GBA mutation was obtained from Coriell Biorepositories; host or cells: GM10915 human fibroblasts
T1 sequence (P04062 40-536 L483P): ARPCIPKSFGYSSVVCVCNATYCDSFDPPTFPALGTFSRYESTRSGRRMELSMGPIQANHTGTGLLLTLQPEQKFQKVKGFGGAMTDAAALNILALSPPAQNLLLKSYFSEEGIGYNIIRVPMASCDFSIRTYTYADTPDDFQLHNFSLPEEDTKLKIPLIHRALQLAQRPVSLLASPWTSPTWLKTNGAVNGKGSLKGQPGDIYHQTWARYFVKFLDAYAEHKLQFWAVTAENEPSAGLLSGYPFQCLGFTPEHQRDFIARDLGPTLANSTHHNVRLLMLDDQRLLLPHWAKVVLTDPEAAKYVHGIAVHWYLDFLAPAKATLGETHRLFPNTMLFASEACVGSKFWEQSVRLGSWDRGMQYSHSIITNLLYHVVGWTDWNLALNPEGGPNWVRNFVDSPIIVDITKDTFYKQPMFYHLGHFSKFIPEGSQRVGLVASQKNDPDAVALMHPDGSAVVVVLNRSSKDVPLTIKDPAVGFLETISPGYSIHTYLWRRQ
Nature of the assay: GCase activity assay (4-MUG) in GM10915 fibroblasts, normalised to crystal violet staining. It counts as cell-based. The conditions noted are these: five days exposure; for GBA EC1.5: concentration where Percent GCase activity = 150% (1.5-fold induction), human fibroblast cell line GM10915 (L444P GBA), 8-point dose range; for Emax: maximum Percent GCase activity in the dose range tested, relative to basal activity of untreated cells, GM10915 (L444P GBA). How it is done: Human fibroblast cell line GM10915 harboring the L444P GBA mutation was obtained from Coriell Biorepositories.
The GM10915 cell line was cultured under standard cell culture conditions (37° C. and 5% CO2) in complete DMEM medium supplemented with nonessential amino acids (NEAA), 1% Pen-Strep and 12% FCS. Cells were seeded at a density of 10^4 cells/well in 100 μL complete medium in one black 96-well plate for glucosylceramidase (GCase) activity measurement and in one clear 96-well plate for crystal violet staining to correct for cell density. Crystal violet staining is performed to obtain quantitative information about the relative density of cells adhering to multi-wells plates.
The assay was adapted from Sawkar et al (2002) and briefly described in the following. The day after seeding of cells, the medium was replaced with fresh medium containing the compounds to be tested. Compounds were tested in duplicate and in an 8-point diluted dose range to obtain a dose response. Cells were exposed with compounds for five days. Fresh compound was added every 2-3 days. PBS was included to define the basal level of GCase activity.
Cells were washed three times with 200 μL PBS per well and 50 μL of 2.5 mM 4-MUG buffer (4-MUG dissolved in 0.2 M acetate buffer pH 4.0) was added and the cells were incubated at 37° C., 5% CO2 for 23 hours. The reaction was stopped by adding 150 μL 0.2 M glycine buffer (pH 10.8). Fluorescence was measured with a Varioskan® Flash reader (Thermo Scientific) at an excitation/emission setting of 365/445 nm.
Cells were treated with compounds in a parallel setup identical to the setup to test for GCase activity. At the end of compound treatment, cells were washed once with 200 μL PBS per well and 50 μL 0.1% w/v crystal violet (in H20) was added. Following 10 min. of incubation, the crystal violet solution was removed, and the cells were washed three times with 200 μL PBS and 100 μL 1% SDS was added to solubilize the stain.
The plate was agitated on an orbital shaker for 10-30 min. Absorbance (A) is measured at […] using a Varioskan® Flash reader (Thermo Scientific).
The fluorescence signal (F) derived from the GCase measurement is normalized to the absorbance signal (A) derived from the crystal violet staining. The percent GCase activity resulting from compound treatment is calculated relative to the basal activity obtained from untreated cells.
Maximal effect of compounds (E max) is determined from the dose response effects as the maximum “Percent GCase activity” achieved in the dose range tested.

For the compound `Cc1cc(CN2CCCCC2)cc(C2CCNCC2)n1` [compound 764], the “GBA EC1.5” value turned out to be 3.3 µM and the Emax is 227%.
For `c1ncc(C2CCNC2)cc1CN1CCCCC1` (stereo not drawn) [compound 769], in that order: 18.9 µM and 205%.
For `CC(c1cncc(C2CCNCC2)c1)N1CCCCC1` (stereo not drawn) [compound 772], in that order: 18.5 µM and 211%.
Taken in the same sequence, the figures for `CN1CCCC(c2cnc(CN3CCCCC3)cn2)C1` (stereo not drawn) [compound 773] were 3.9 µM and 236%.
Regarding `CN1CCC(c2cnc(CN3CCCCC3)cn2)CC1` [compound 774], the “GBA EC1.5” value is 9.7 µM and the Emax stood at 198%.
Taken in the same sequence, the figures for `c1cc(CN2CCCCC2)ncc1C1CCNCC1` [compound 775] were 24.5 µM and 186%.
Taken in the same sequence, the figures for `CN1CCCC(c2ccc(CN3CCCCC3)nc2)C1` (stereo not drawn) [compound 776] were 4.3 µM and 200%.
In the case of `Cc1cc(CN2CCCCC2)cnc1C1CCN(C)CC1` [compound 777], the “GBA EC1.5” value is 6.9 µM and the Emax came out at 200%.
For `Cc1ccc(CN2CCCCC2)nc1C1CCNCC1` [compound 778], in that order: 7.4 µM and 152%.
For `CN1CCC(c2cc(CN3CCCCC3)ncn2)CC1` [compound 784], in that order: 6.5 µM and 155%.
Turning to `c1cc(CN2CCCCC2)nc(C2CCNCC2)c1` [compound 788], the “GBA EC1.5” value amounted to 8.0 µM and the maximal effect (Emax) came to 278%.
Taken in the same sequence, the figures for `c1cc(CN2CCCCC2)nc(C2CCCNC2)c1` (stereo not drawn) [compound 791] were 4.4 µM and 165%.
For `c1cc(CN2CCCCC2)nc(C2CCNC2)c1` (stereo not drawn) [compound 793], in that order: 29.2 µM and 165%.
Taken in the same sequence, the figures for `CN1CCC(c2cccc(CN3CCCCC3)n2)CC1` [compound 794] were 3.0 µM and 269%.
Turning to `Cc1cc(CN2CCCCC2)cc(C2CCN(C)CC2)n1` [compound 795], the “GBA EC1.5” value came to 7.0 µM and the Emax came out at 185%.
`CN1CCCC(c2cccc(CN3CCCCC3)n2)C1` (stereo not drawn) [compound 796]: the “GBA EC1.5” value stood at 2.6 µM and the Emax came out at 267%.
For `CN1CCC(c2cccc(CN3CCCCC3)n2)C1` (stereo not drawn) [compound 798], in that order: 2.5 µM and 250%.
Taken in the same sequence, the figures for `Cc1ccc(CN2CCCCC2)nc1C1CCN(C)CC1` [compound 801] were 3.9 µM and 173%.
For `CN1CCCC(c2cc(CN3CCCCC3)ncn2)C1` (stereo not drawn) [compound 802], in that order: 8.8 µM and 256%.
Regarding `COc1ncc(C2CCNC2)cc1CN1CCCCC1` (stereo not drawn) [compound 803], the “GBA EC1.5” value worked out at 6.0 µM and the maximal response (Emax) came to 203%.
Taken in the same sequence, the figures for `c1cc(CN2CCCCC2)ncc1C1CCNC1` (stereo not drawn) [compound 808] were 28.6 µM and 175%.
Taken in the same sequence, the figures for `CN1CCCC(c2ccc(CN3CCCCC3)cn2)C1` (stereo not drawn) [compound 810] were 4.9 µM and 199%.
As to `c1cc(C2CCCNC2)ncc1CN1CCCCC1` (stereo not drawn) [compound 811], the “GBA EC1.5” value came to 3.4 µM and the Emax came to 263%.
For `COc1ncc(C2CCN(C)C2)cc1CN1CCCCC1` (stereo not drawn) [compound 812], in that order: 6.7 µM and 255%.
For `c1nc(CN2CCCCC2)cc(C2CCNC2)n1` (stereo not drawn) [compound 832], in that order: 18.0 µM and 175%.
For `c1cc2c(CN3CCCCC3)c[nH]c2nc1C1CCCNC1` (stereo not drawn) [compound 833], in that order: 12.1 µM and 203%.
With `c1nc2cnc(C3CCNCC3)cn2c1CN1CCCCC1` [compound 841], the “GBA EC1.5” value worked out at 35.9 µM and the Emax was found to be 181%.
For `Fc1c(CN2CCCCC2)ccnc1C1CCNCC1` [compound 846], in that order: 2.8 µM and 245%.
`c1cc2ncc(CN3CCCCC3)n2cc1C1CCNCC1` [compound 853]: the “GBA EC1.5” value came out at 8.0 µM and the Emax was found to be 193%.
For the compound `c1cn2cc(CN3CCCCC3)nc2cc1C1CCNCC1` [compound 854], the “GBA EC1.5” value is 9.4 µM and the maximal response (Emax) came to 194%.
For `c1cc(C2CCNCC2)nnc1CN1CCCCC1` [compound 855], in that order: 43.3 µM and 163%.
For `c1nc2cc(CN3CCCCC3)oc2cc1C1CCNCC1` [compound 868], in that order: 6.5 µM and 204%.
For `Fc1cc(C2CCNCC2)cnc1CN1CCCCC1` [compound 880], in that order: 4.3 µM and 237%.

A word on the Emax: it is the maximal effect, on the per cent scale that the assay sets.
